Assay [1] deals with isolated recombinant JAK2 kinase domain (Homo sapiens (Human), UniProt O60674). Briefly: JAK2 enzyme assay (Caliper LabChip, Ki). It is filed as biochemical. The procedure: (§1) JAK Enzyme Assays were carried out as follows:
The activity of the isolated recombinant JAK1 and JAK2 kinase domain was measured by monitoring phosphorylation of a peptide derived from JAK3 ([…] fluorescently labeled on the N-terminus with 5-carboxyfluorescein) using the Caliper LabChip® technology (Caliper Life Sciences, Hopkinton, Mass.). […] Reactions were incubated at 22° C. in 384-well polypropylene microtiter plates for 30 minutes and then stopped by addition of 25 μL of an EDTA containing solution (100 mM HEPES buffer (pH 7.2), 0.015% Brij-35, 150 mM EDTA), resulting in a final EDTA concentration of 50 mM. After termination of the kinase reaction, the proportion of phosphorylated product was determined as a fraction of total peptide substrate using the Caliper LabChip® 3000 according to the manufacturer's specifications.

The target of assay [2] is isolated recombinant JAK1 kinase domain (Homo sapiens (Human), UniProt P23458). Nature of the assay: JAK1 enzyme assay (Caliper LabChip, Ki). It is filed as biochemical. The procedure:
as §1
The activity of the isolated recombinant JAK1 and JAK2 kinase domain was measured by monitoring phosphorylation of a peptide derived from JAK3 (Val-Ala-Leu-Val-Asp-Gly-Tyr-Phe-Arg-Leu-Thr-Thr, fluorescently labeled on the N-terminus with 5-carboxyfluorescein) using the Caliper LabChip® technology (Caliper Life Sciences, Hopkinton, Mass.). […] Reactions were incubated at 22° C. in 384-well polypropylene microtiter plates for 30 minutes and then stopped by addition of 25 μL of an EDTA containing solution (100 mM HEPES buffer (pH 7.2), 0.015% Brij-35, 150 mM EDTA), resulting in a final EDTA concentration of 50 mM. After termination of the kinase reaction, the proportion of phosphorylated product was determined as a fraction of total peptide substrate using the Caliper LabChip® 3000 according to the manufacturer's specifications. Ki values were then determined using the Morrison tight binding model (Morrison, J. F., Biochim. Biophys. Acta. 185:269-296 (1969); William, J. W. and Morrison, J. F., Meth. Enzymol., 63:437-467 (1979)) modified for ATP-competitive inhibition [Ki=Ki,app/(1+[ATP]/Km,app)].

Drawing on patent publication US11731943B2, “Therapeutic compounds, compositions and methods of use thereof” (priority 2016, dated 2023), this text covers Ki for 39 compounds.

pKi: −log10 of the molar value. Read-outs that look alike come from different tables or passages of the source.

Sequence of isolated recombinant JAK1 kinase domain (P23458 875-1153): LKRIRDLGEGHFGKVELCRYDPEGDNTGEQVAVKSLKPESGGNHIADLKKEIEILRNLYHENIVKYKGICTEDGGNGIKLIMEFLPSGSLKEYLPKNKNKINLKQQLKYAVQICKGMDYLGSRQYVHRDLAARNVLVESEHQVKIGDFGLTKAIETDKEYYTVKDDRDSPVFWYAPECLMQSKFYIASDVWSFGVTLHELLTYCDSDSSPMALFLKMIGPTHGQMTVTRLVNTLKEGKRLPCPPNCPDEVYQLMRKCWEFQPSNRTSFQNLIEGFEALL
Sequence of isolated recombinant JAK2 kinase domain (O60674 849-1124): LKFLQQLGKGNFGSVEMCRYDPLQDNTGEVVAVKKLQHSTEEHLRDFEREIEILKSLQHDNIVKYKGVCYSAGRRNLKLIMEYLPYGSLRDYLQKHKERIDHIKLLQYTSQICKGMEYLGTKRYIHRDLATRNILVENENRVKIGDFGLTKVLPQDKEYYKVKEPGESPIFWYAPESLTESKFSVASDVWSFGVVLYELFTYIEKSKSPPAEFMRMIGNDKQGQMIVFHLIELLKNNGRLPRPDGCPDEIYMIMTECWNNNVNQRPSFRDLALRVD

Consider `N#CCC1(n2cc(C(N)=O)c(NC(=O)C3CC3)n2)CCC2(CC1)Oc1ccccc1O2` (racemic) [Example 34], for which the pKi (as a rule, −log10 of the Ki, conventionally taken in molar units) in assay [1] is 6.56; in assay [2] it was 7.61.

As to `N#CCC1(n2cc(C(N)=O)c(NC(=O)C3CC3)n2)CCN(Cc2cccc(-c3ccccc3)c2)CC1` (racemic) [Example 37], the results for the pKi in assay [1] and in assay [2] were 6.57 and 7.46, respectively.

As for `N#CCC1(n2cc(C(N)=O)c(NC(=O)C3CC3)n2)CCN(Cc2ccc(N3CCCCC3)cc2)CC1` (racemic) [Example 39], the pKi in assay [1] is less than 6.50; in assay [2] it was 7.01.

As to `N#CC[C@]1(n2cc(C(N)=O)c(NC(=O)C3CC3)n2)CC[C@@H](N2CC(C(F)(F)F)C2)CC1` (single isomer, unassigned) [Example 7], the pKi was less than 6.50 in assay [1] and less than 6.25 in assay [2] (read-out: JAK1 Ki).

As for `N#CCC1(n2cc(C(N)=O)c(NC(=O)[C@H]3C[C@H]3C3CC3)n2)CCN(CC(F)(F)F)CC1` (stereo in doubt) [Example 176, 1-[4-(cyanomethyl)-1-(2,2,2-trifluoroethyl)-4-piperidyl]-3-[(2-cyclopropylcyclopropanecarbonyl)amino]pyrazole-4-carboxamide], the pKi in assay [1] was less than 6.50; in assay [2] (read-out: JAK1 Ki), 6.52.

For `N#CCC1(n2cc(C(N)=O)c(NC(=O)[C@H]3C[C@@H]3C3CC3)n2)CCN(CC(F)(F)F)CC1` (stereo in doubt) [Example 177, 1-[4-(cyanomethyl)-1-(2,2,2-trifluoroethyl)-4-piperidyl]-3-[(2-cyclopropylcyclopropanecarbonyl)amino]pyrazole-4-carboxamide], the pKi in assay [1] was 6.65; in assay [2] (read-out: JAK1 Ki) it was 7.73.

With `CNC(=O)Nc1cn(C2(CC#N)CCN(CC(F)(F)F)CC2)nc1C(N)=O` [Example 3, 1-(4-(Cyanomethyl)-1-(2,2,2-trifluoroethyl)piperidin-4-yl)-4-(3-methylureido)-1H-pyrazole-3-carboxamide], the pKi in assay [1] was 7.80; in assay [2] (read-out: JAK1 Ki), 8.19.

Consider `COC(=O)Nc1nn(C2(CC#N)CCN(CC(F)(F)F)CC2)cc1C(N)=O` [Example 4, Methyl (4-carbamoyl-1-(4-(cyanomethyl)-1-(2,2,2-trifluoroethyl)piperidin-4-yl)-1H-pyrazol-3-yl)carbamate], for which the pKi in assay [1] is 7.46; in assay [2] (read-out: JAK1 Ki), 8.09.

On to `N#CCC1(n2cc(C(N)=O)c(NC(=O)C3CC3)n2)CCC2(CC1)COC2` [Example 5, 1-(7-(Cyanomethyl)-2-oxaspiro[3.5]nonan-7-yl)-3-(cyclopropanecarboxamido)-1H-pyrazole-4-carboxamide], for which the pKi in assay [1] is 6.72; in assay [2] (read-out: JAK1 Ki) it was 7.64.

Regarding `N#CCC1(n2cc(C(N)=O)c(NC(=O)C3CC3)n2)CCN(C(=O)Cc2ccccc2)CC1` [Example 18, 1-(4-(Cyanomethyl)-1-(2-phenylacetyl)piperidin-4-yl)-3-(cyclopropanecarboxamido)-1H-pyrazole-4-carboxamide], the pKi was 6.63 in assay [1] and 7.51 in assay [2] (read-out: JAK1 Ki).

In the case of `N#CCC1(n2cc(C(N)=O)c(NC(=O)C3CC3)n2)CCN(C(CO)c2ccccc2)CC1` (stereo not drawn) [Example 19, 1-(4-(Cyanomethyl)-1-(2-hydroxy-1-phenylethyl)piperidin-4-yl)-3-(cyclopropanecarboxamido)-1H-pyrazole-4-carboxamide], the pKi in assay [1] was less than 6.50; in assay [2], 7.16.

Take `N#CCC1(n2cc(C(N)=O)c(NC(=O)C3CC3)n2)CCN(CC(O)c2ccccc2)CC1` (stereo not drawn) [Example 20, 1-(4-(cyanomethyl)-1-(2-hydroxy-2-phenylethyl)piperidin-4-yl)-3-(cyclopropanecarboxamido)-1H-pyrazole-4-carboxamide]: the pKi in assay [1] is less than 6.50; in assay [2], 6.35.

With `CC(c1ccccc1)N1CCC(CC#N)(n2cc(C(N)=O)c(NC(=O)C3CC3)n2)CC1` (stereo not drawn) [Example 22], the results for the negative logarithm of the Ki (pKi) in assay [1] and in assay [2] (read-out: JAK1 Ki) were 6.82 and 7.43, respectively.

As for `CC(=O)Nc1nn(C2(CC#N)CCN(CC(F)(F)F)CC2)cc1C(N)=O` [Example 24], the figures for the pKi in assay [1] and in assay [2] (read-out: JAK1 Ki) were 7.12 and 7.45, respectively.

In the case of `N#CCC1(n2cc(C(N)=O)c(NC(=O)C3CC34CC4)n2)CCN(CC(F)(F)F)CC1` (stereo not drawn) [Example 25], the pKi in assay [1] was less than 6.50; in assay [2] (read-out: JAK1 Ki), 7.09.

For `N#CCC1(n2cc(C(N)=O)c(NC(=O)C3CC3(F)F)n2)CCN(CC(F)(F)F)CC1` (stereo not drawn) [Example 26], the figures for the pKi in assay [1] and in assay [2] (read-out: JAK1 Ki) were 6.69 and 7.94, respectively.

Consider `N#CCC1(n2cc(C(N)=O)c(NC(=O)[C@H]3C[C@@H]3C(F)(F)F)n2)CCN(CC(F)(F)F)CC1` [Example 27], for which the pKi is 6.11 in assay [1] and 6.99 in assay [2] (read-out: JAK1 Ki).

As for `N#CCC1(n2cc(C(N)=O)c(NC(=O)[C@@H]3C[C@@H]3F)n2)CCN(CC(F)(F)F)CC1` [Example 28], the pKi in assay [1] is 7.51; in assay [2] (read-out: JAK1 Ki), 7.92.

As for `N#CCC1(n2cc(C(N)=O)c(NC(=O)[C@H]3C[C@H]3F)n2)CCN(CC(F)(F)F)CC1` [Example 29], the pKi in assay [1] was 7.92; in assay [2] (read-out: JAK1 Ki), 8.00.

For the compound `N#CCC1(n2cc(C(N)=O)c(NC(=O)[C@@H]3C[C@H]3F)n2)CCN(CC(F)(F)F)CC1` [Example 30], the pKi in assay [1] is 7.27; in assay [2] (read-out: JAK1 Ki), 8.07.

As for `N#CCC1(n2cc(C(N)=O)c(NC(=O)[C@H]3CC34CCC4)n2)CCN(CC(F)(F)F)CC1` [Example 31], the pKi was 6.72 in assay [1] and 7.02 in assay [2] (read-out: JAK1 Ki).

For the compound `C[C@@H]1C[C@H]1C(=O)Nc1nn(C2(CC#N)CCN(CC(F)(F)F)CC2)cc1C(N)=O` [Example 32], the pKi was 6.71 in assay [1] and 7.14 in assay [2] (read-out: JAK1 Ki).

Regarding `N#CCC1(n2cc(C(N)=O)c(NC(=O)C3CC3)n2)CCCCC1` [Example 33], the pKi in assay [1] was 7.12; in assay [2] (read-out: JAK1 Ki), 7.81.

For the compound `CC(C)(C)OC(=O)N[C@H]1CC[C@](CC#N)(n2cc(C(N)=O)c(NC(=O)C3CC3)n2)CC1` [Example 35], the pKi is 6.56 in assay [1] and 7.69 in assay [2].

Turning to `CC(C)(C)OC(=O)N[C@H]1CC[C@@](CC#N)(n2cc(C(N)=O)c(NC(=O)C3CC3)n2)CC1` [Example 36], the pKi in assay [1] is less than 6.50; in assay [2], less than 6.25.

Turning to `N#CCC1(n2cc(C(N)=O)c(NC(=O)C3CC3)n2)CCN(Cc2ccccc2-c2ccccc2)CC1` [Example 38], the negative-log Ki (pKi) in assay [1] was 6.97; in assay [2] (read-out: JAK1 Ki), 8.09.

Turning to `N#CCC1(n2cc(C(N)=O)c(NC(=O)C3CC3)n2)CCN(Cc2ccccc2)CC1` [Example 40], the pKi is 7.01 in assay [1] and 8.10 in assay [2] (read-out: JAK1 Ki).

Take `COc1ccccc1CN1CCC(CC#N)(n2cc(C(N)=O)c(NC(=O)C3CC3)n2)CC1` [Example 41]: the pKi was less than 6.50 in assay [1] and 7.27 in assay [2] (read-out: JAK1 Ki).

`COc1cccc(CN2CCC(CC#N)(n3cc(C(N)=O)c(NC(=O)C4CC4)n3)CC2)c1` [Example 42]: the pKi in assay [1] was 7.02; in assay [2] (read-out: JAK1 Ki), 8.11.

In the case of `COc1ccc(CN2CCC(CC#N)(n3cc(C(N)=O)c(NC(=O)C4CC4)n3)CC2)cc1` [Example 43], the figures for the pKi in assay [1] and in assay [2] (read-out: JAK1 Ki) were 6.77 and 7.59, respectively.

As for `CS(=O)(=O)Nc1ccccc1CN1CCC(CC#N)(n2cc(C(N)=O)c(NC(=O)C3CC3)n2)CC1` [Example 44], the pKi in assay [1] is 6.76; in assay [2] (read-out: JAK1 Ki), 7.56.

With `CS(=O)(=O)Nc1ccc(CN2CCC(CC#N)(n3cc(C(N)=O)c(NC(=O)C4CC4)n3)CC2)cc1` [Example 46], the pKi in assay [1] is 6.55; in assay [2] (read-out: JAK1 Ki), 7.38.

Turning to `N#CCC1(n2cc(C(N)=O)c(NC(=O)C3CC3)n2)CCN(Cc2ccccc2OC(F)(F)F)CC1` [Example 47], the negative logarithm of the Ki (pKi) in assay [1] was 6.60; in assay [2] (read-out: JAK1 Ki), 7.47.

Consider `N#CCC1(n2cc(C(N)=O)c(NC(=O)C3CC3)n2)CCN(Cc2cccc(OC(F)(F)F)c2)CC1` [Example 48], for which the pKi in assay [1] was 6.72; in assay [2] (read-out: JAK1 Ki) it was 7.56.

For `N#CCC1(n2cc(C(N)=O)c(NC(=O)C3CC3)n2)CCN(Cc2ccc(OC(F)(F)F)cc2)CC1` [Example 49], the values for the pKi in assay [1] and in assay [2] (read-out: JAK1 Ki) were 6.72 and 7.63, respectively.

For `N#CCC1(n2cc(C(N)=O)c(NC(=O)C3CC3)n2)CCN(Cc2ccccc2Br)CC1` [Example 50], the values for the pKi in assay [1] and in assay [2] (read-out: JAK1 Ki) were 7.18 and 8.21, respectively.

Regarding `N#CCC1(n2cc(C(N)=O)c(NC(=O)C3CC3)n2)CCN(Cc2cccc(Br)c2)CC1` [Example 51], the pKi in assay [1] is 7.27; in assay [2] (read-out: JAK1 Ki), 8.19.

On to `N#CCC1(n2cc(C(N)=O)c(NC(=O)C3CC3)n2)CCN(Cc2ccccc2I)CC1` [Example 53], for which the pKi in assay [1] was 7.00; in assay [2] (read-out: JAK1 Ki), 8.15.

For `N#CCC1(n2cc(C(N)=O)c(NC(=O)C3CC3)n2)CCN(Cc2cccc(I)c2)CC1` [Example 54], the pKi in assay [1] is 6.99; in assay [2] (read-out: JAK1 Ki), 7.97.
